Results as given in patent US12162858B2, “Quinoline derivatives as inhibitors of AXL/MER RTK and CSF1R” (QURIENT CO., LTD., priority 2018, dated 2024).

target: CSF1R (Homo sapiens, UniProt P07333); assay: Cellular CSF1R inhibition ELISA (p-CSF1R, M-CSF-induced) using THP-1 cells; format: cell-based; set-up: THP-1 cells act as a model for human monocytes; endogenous in cells; host or cells: THP-1
Text: The normal proto-oncogene c-fms encodes the macrophage growth factor (M-CSF, also known as CSF1) receptor involved in growth, survival, and differentiation along the monocyte-macrophage lineage. THP-1 cells act as a model for human monocytes. It confirms that an increased phosphorylation of CSF1R (p-CSF1R) can be observed, when induced by CSF1R ligand, CSF1.
The THP-1 cells should be maintained from 5×10^5 to 1×10^6 cells/ml in the cell culture flask. After centrifugation, the supernatant is aspirated. The cell pellet is re-suspended with pre-warmed growth medium (RPMI1640, 10% FBS, 0.05 mM 2-Mercaptoethanol) and cells are separated by pipetting 6 times up and down with a 10 ml serological pipette. The cell suspension has to be diluted to a final concentration of 2×10^5 cells per 80 μl with pre-warmed growth medium. 80 μl of cell suspension is added to all wells of plates. Cell-plates are incubated at 37° C./5% CO2. Dissolve compound in 100% DMSO to make 10 mM stock solutions (Aliquots stored in the Nitrogen Cabinet). Dilute 10 mM compounds solutions for 2-fold in 100% DMSO to get 5 mM solutions (10 μl+10 μl DMSO), and then make a 3-fold serial dilution (10 μl+20 μl DMSO) for 10 doses. For reference compounds: Dilute 10 mM compounds solutions for 20-fold in 100% DMSO to get 0.5 mM solutions (2 μl+38 μl DMSO), and then make a 3-fold serial dilution (10 μl+20 μl DMSO) for 10 doses. Transfer 2 μl diluted compounds to 198 μl medium to get solution of 50 μM concentration at top point for compounds and 5 μM for reference compounds. Then transfer 20 μl cpd solution into assay plate (Duplicate wells). The plate is incubated at 37° C./5% CO2 for 24 h. The final concentration of DMSO in all wells is […]. Reconstitute human M-CSF at 50 μg/ml in sterile water. (Aliquots stored in −80° C.). 1:1000 dilute human M-CSF by fresh medium to 50 ng/ml. After 24 h compounds treatment, transfer 25 μl diluted human M-CSF (50 ng/ml) to cell plate according to the plate map. The final concentration of human M-CSF in all wells is 10 ng/ml.
The plates is incubated at 37° C./5% CO2 for 5 min. In the beginning the appropriate amount of lysis buffer complete (100 μL/well) is prepared and stored on ice. After 5 min human M-CSF stimulation, wash plates once with 300 μL ice cold PBS. Then 100 μl lysis buffer is added to each well. The plate is shacked for 40 min at 4° C. Plates can now be stored at −20° C. After equilibrate the micro-well strips at room temperature, break off the required number of micro-wells. Place the micro-wells in the strip holder. Unused micro-wells must be resealed and stored at 4° C. immediately. Add 90 μl of cell lysate to the appropriate well. Seal with tape and press firmly onto top of micro-wells. Incubate the plate for 2 h at 37° C. Gently remove the tape and wash wells 4 times with 1× Wash Buffer, 200 μl each time for each well. Add 100 μl of reconstituted Detection Antibody (green color) to each well. Seal with tape and incubate the plate at 37° C. for 1 h. Repeat wash procedure. Add 100 μl of reconstituted HRP-Linked secondary antibody to each well. Seal with tape and incubate the plate for 30 min at 37° C. Repeat wash procedure. Add 100 μl of TMB Substrate to each well. Seal with tape and incubate the plate for 10 min at 37° C. or 30 min at 25° C. Calculations and Formulas: The following calculations and formulas are used for data analysis using XL Fit software: The curve fitting was made using the Sigmoidal Dose-Response Model (Fit model, 205).

Chain of CSF1R (P07333 20-972): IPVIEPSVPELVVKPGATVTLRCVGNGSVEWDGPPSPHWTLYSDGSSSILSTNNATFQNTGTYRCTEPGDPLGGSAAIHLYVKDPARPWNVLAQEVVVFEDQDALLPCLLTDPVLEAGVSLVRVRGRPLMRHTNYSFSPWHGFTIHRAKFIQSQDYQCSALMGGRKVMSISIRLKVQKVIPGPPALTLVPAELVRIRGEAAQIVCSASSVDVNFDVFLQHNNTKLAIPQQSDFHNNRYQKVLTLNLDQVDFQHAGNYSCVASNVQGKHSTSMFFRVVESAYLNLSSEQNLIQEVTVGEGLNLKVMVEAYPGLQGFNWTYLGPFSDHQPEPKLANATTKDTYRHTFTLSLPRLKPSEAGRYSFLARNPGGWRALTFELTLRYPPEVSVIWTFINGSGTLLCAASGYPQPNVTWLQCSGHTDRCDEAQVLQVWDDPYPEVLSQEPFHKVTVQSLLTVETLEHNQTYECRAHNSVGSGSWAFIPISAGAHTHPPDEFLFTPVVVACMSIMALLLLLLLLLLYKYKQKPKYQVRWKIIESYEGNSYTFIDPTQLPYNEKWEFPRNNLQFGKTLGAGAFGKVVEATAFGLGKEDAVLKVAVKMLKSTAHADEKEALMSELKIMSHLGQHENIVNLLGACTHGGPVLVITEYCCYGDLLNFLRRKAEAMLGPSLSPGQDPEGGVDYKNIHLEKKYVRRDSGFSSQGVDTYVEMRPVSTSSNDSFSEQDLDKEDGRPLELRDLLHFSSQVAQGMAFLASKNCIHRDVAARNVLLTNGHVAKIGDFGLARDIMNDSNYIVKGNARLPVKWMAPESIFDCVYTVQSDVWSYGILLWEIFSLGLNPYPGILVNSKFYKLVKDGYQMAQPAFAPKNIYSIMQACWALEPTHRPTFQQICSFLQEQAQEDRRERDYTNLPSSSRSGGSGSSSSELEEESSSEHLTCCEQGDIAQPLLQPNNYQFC

| SMILES | IC50 [nM] |
| --- | --- |
| CCCn1cc(OCC(F)(F)F)c(C(=O)Nc2ccc(Oc3ccnc4cc(OC)c(OC)cc34)nn2)n1 [Compound 32] | < 500 |
| COc1cc2nccc(Oc3ccc(NC(=O)c4nn(C5CCCC5)cc4OCC(F)(F)F)nc3)c2cc1OC [Compound 40] | < 500 |
| COc1cc2nccc(Oc3ccc(NC(=O)c4nn(C5CCCC5)cc4OCC(F)(F)F)cc3C)c2cc1OC [Compound 57] | 500 to 1000 |
| COc1cc2nccc(Oc3ccc(NC(=O)c4nn(CC5CCCCC5)cc4OCC(F)(F)F)nc3)c2cc1OC [Compound 43] | < 500 |
| COc1cc2nccc(Oc3ccc(NC(=O)c4nn(C(C)(C)C)cc4OCC(F)(F)F)nc3)c2cc1OC [Compound 22] | < 500 |
| COc1cc2nccc(Oc3ccc(NC(=O)c4nn(C5CC5)c(C(C)=O)c4OCC(F)(F)F)nc3)c2cc1OC [Compound 3] | < 500 |
| CCCn1cc(OCCF)c(C(=O)Nc2ccc(Oc3ccnc4cc(OC)c(OC)cc34)cn2)n1 [Compound 14] | < 500 |
| COc1cc2nccc(Oc3ccc(NC(=O)c4nn(CC(C)(F)F)cc4OCC(F)(F)F)nc3)c2cc1OC [Compound 64] | < 500 |
| COc1cc2nccc(Oc3ccc(NC(=O)c4nn(CC5CCC5)cc4OCC(F)(F)F)nc3)c2cc1OC [Compound 42] | < 500 |
| COc1cc2nccc(Oc3ccc(NC(=O)c4nn(CCO)cc4OCC(F)(F)F)c(F)c3)c2cc1OC [Compound 46] | 500 to 1000 |
| COc1cc2nccc(Oc3ccc(NC(=O)c4nn(C[C@H](C)O)cc4OCC(F)(F)F)nc3)c2cc1OC [Compound 30] | < 500 |
| COc1cc2nccc(Oc3ccc(NC(=O)c4nn(C5CCCCC5)cc4OCC(F)(F)F)nc3)c2cc1OC [Compound 69] | < 500 |
| COc1cc2nccc(Oc3ccc(NC(=O)c4nn(CCO)cc4OCC(F)(F)F)cc3F)c2cc1OC [Compound 51] | < 500 |
| CCCn1cc(OCC(F)(F)F)c(C(=O)Nc2ccc(Oc3ccnc4cc(OC)c(OC)cc34)cc2F)n1 [Compound 28] | 500 to 1000 |
| COc1cc2nccc(Oc3ccc(NC(=O)c4nn(C)cc4OCC(F)(F)F)c(F)c3)c2cc1OC [Compound 45] | < 500 |
| COc1cc2nccc(Oc3ccc(NC(=O)c4nn(CC(C)C)cc4OCC(F)(F)F)c(F)c3)c2cc1OC [Compound 48] | 500 to 1000 |
| CCCn1cc(NCC(F)(F)F)c(C(=O)Nc2ccc(Oc3ccnc4cc(OC)c(OC)cc34)cn2)n1 [Compound 23] | < 500 |
| CCCn1cc(OCC2CCC2)c(C(=O)Nc2ccc(Oc3ccnc4cc(OC)c(OC(F)(F)F)cc34)cn2)n1 [Compound 167] | ≥ 1000 |
| COc1cc2nccc(Oc3ccc(NC(=O)c4nn(CC(C)N)cc4OCC(F)(F)F)nc3)c2cc1OC (centres unmarked) [Compound 63] | 500 to 1000 |
| CCCn1cc(OCCC(O)CO)c(C(=O)Nc2ccc(Oc3ccnc4cc(OC)c(OC)cc34)cn2)n1 (centres unmarked) [Compound 15] | ≥ 1000 |
| COc1cc2nccc(Oc3ccc(NC(=O)c4nn(C5CCCC5)cc4OCC(F)(F)F)cc3)c2cc1OC [Compound 60] | 500 to 1000 |
| COc1cc2nccc(Oc3ccc(NC(=O)c4nn(CC5CCN(C)C5)cc4OCC(F)(F)F)nc3)c2cc1OC (centres unmarked) [Compound 169] | < 500 |
| COc1cc2nccc(Oc3ccc(NC(=O)c4nn(CC(C)O)cc4OCC4CN(C)C4)nc3)c2cc1OC (centres unmarked) [Compound 174] | ≥ 1000 |
| CCCn1cc(N(C)CC2CCOCC2)c(C(=O)Nc2ccc(Oc3ccnc4cc(OC)c(OC)cc34)cn2)n1 [Compound 34] | ≥ 1000 |
| CCn1nc(C(=O)Nc2ccc(Oc3ccnc4cc(OC)c(OC)cc34)cn2)c(OCC(F)(F)F)c1C [Compound 1] | < 500 |
| COc1cc2nccc(Oc3ccc(NC(=O)c4cc(C5CC5)cnc4OCC(F)(F)F)nc3)c2cc1OC [Compound 178] | < 500 |
| COc1cc2nccc(Oc3ccc(NC(=O)c4nn(C5CCOC5)cc4OCC(F)(F)F)cc3)c2cc1OC (centres unmarked) [Compound 62] | ≥ 1000 |
| COc1cc2nccc(Oc3ccc(NC(=O)c4nn(CC(C)C)cc4OCC(F)(F)F)cc3C)c2cc1OC [Compound 58] | ≥ 1000 |
| COc1cc2nccc(Oc3ccc(NC(=O)c4nn(C5CCNC5)cc4OCC(F)(F)F)c(F)c3)c2cc1OC (centres unmarked) [Compound 74] | ≥ 1000 |
